This is an account of results in patent publication US8138188B2, “Melanocortin type 4 receptor agonist piperidinoylpyrrolidines” (Pfizer Inc., priority 2006, dated 2012).

Series [1] is described as follows: In vitro metabolism rate determination, human liver microsome (HLM) assay. As to conditions: human liver microsomes, substrate 1 μM; read-out: HLM (intrinsic clearance). The series is classed as in vitro ADME. The source says:
(§1) In vitro Metabolism Rate Determination (Human Liver Microsome (HLM); Rat Liver Microsome (RLM) Assay)
(§2) Many drugs are metabolised by the cytochrome P450 mono-oxygenase system. This enzyme is found in high concentrations in the liver and is bound to the endoplasmic reticulum of the hepatocyte. The enzyme system can be obtained in semi-purified state by the preparation of the hepatic microsomal fractions. Determining a compound's in vitro half-life in such a system provides a useful indicator of metabolic stability.
(§3) Methodology For In Vitro Rate Determination Using Hepatic & Supermix Microsomes
(§4) The method outlined below is for a total incubation volume of 1.5 ml.
(§5) 1. The following mixture is prepared in a test tube:
(§6) 2. Defrost microsomes at room temperature and add sufficient microsomes to give a final concentration of 0.5 nmol cytochrome P450/ml of incubation e.g. for a 1.5 ml incubation, the volume of microsomes to be added is:
(§7) [formula] 3. Add sufficient MilliQ water to give a total incubation volume of 1.425 ml. 4. Remove 237.5 μl of incubation mix and place in test tube for PNA positive control. Add 2.5 μl of PNA solution, whirlimix, and put tube into a rack in the thermostatically controlled shaking water bath 5. Remove 100 μl for no substrate control and dispense in test tube. Place test tube in a rack in the thermostatically controlled shaking water bath. 6. Add substrate to the incubation. The substrate should be at an initial concentration of 1 μM. The volume of substrate required in the remaining 1.162.5 ml incubation is calculated as follows:
(§8) [formula] • N.B. The volume of organic solvent added should not exceed 0.1% of the total incubation volume. 7. Remove 100 μl of incubation mix into test tube for no cofactor control. Whirlimix and put into a rack in the thermostatically controlled shaking water bath. 8. Pre-incubate the tube containing the incubation mix, also positive control and no cofactor tubes in the thermostatically controlled shaking water bath set at 37° C. for approx 5 min. 9. Add NADP to initiate reaction (75 μl to each 1.162.5 ml incubation mix, 12.5 μl to positive control tube and 5 μl to no substrate tube) and take first time point immediately. The PNA positive control, no cofactor control and no substrate tubes are incubated for the total incubation time. 10. Remove 100 μl aliquots up to 9 different sampling points from 0 to 60 min (usually 0, 3, 5, 10, 15, 20, 30, 45 & 60 min) and terminate reaction. Longer incubation times can be used, but, after 120 min the microsomes deteriorate. The reaction may be terminated by addition of organic solvent, acid or base. At the end of the incubation process the no cofactor and no substrate controls in a similar manner i.e. terminate with the same reagent. 11. PNA Positive Control Procedure: • After the final sample has been taken, remove the positive control and add 1 ml 20% TCA to this tube. Also prepare a tube containing 250 μl of a PNP standard at 50 μM, and add 1 ml 20% TCA. Whirlimix both tubes and leave for approx 5 min to allow the protein to precipitate. • Centrifuge both tubes for approx 5 min in an instrument set at 3500 rpm. Remove 1 ml of supernatant and place into clean test tubes, discard the remainder. • Add 1 ml 10M NaOH to the supernatant, whirlimix, and leave to stand for approx min. Blank spectrophotometer with distilled water at 400 nm then measure absorbance of the PNP standard against distilled water. The microsomal 4-nitroanisole O-demethylase activity is calculated as follows: Calculation of Results
(§9) [formula] • The activity value from the incubation MUST be equal to or greater than 85% of the mean value of the batch used for the incubation to be valid. If this criteria is not met, then the incubation must be repeated. 11. Analyse samples (including no cofactor and no substrate control) by a specific assay for the substrate to determine the disappearance kinetics. Analysis Of Data […]
(Liver microsomes are a subcellular fraction often used to study metabolism.)

Series [2] can be described thus: In vitro metabolism rate determination, rat liver microsome (RLM) assay. The series is classed as in vitro ADME. The following applies: rat liver microsomes, substrate 1 μM; read-out: RLM (intrinsic clearance).
Source text: as §1, §2, §3, §4, §5, §6, §7, §8, §9

Series [3] addresses T1, CYP3A4 (Homo sapiens, UniProt P08684).
T1 construct: utilizes human liver microsomes together with isoform-specific clinical drug probes; from tissue; host or cells: human liver microsomes
The experiment in a line: High density drug-drug interactions (DDI) 3 μM cocktail screen in human liver microsomes. The following applies: 3 uM test compound, pooled human liver microsomes, probe midazolam 2 μM; read-out: % Inhibition of 3A4 metabolism at 3 uM. The series is classed as in vitro ADME. As for the experimental part:
High Density Drug-Drug Interactions (DDI) 3 μM Cocktail Screen
A drug interaction is a situation in which a substance affects the activity of another drug, i.e. the effects are increased or decreased, or together they produce a new effect that neither produces on its own. Drug interactions may be the result of various processes but a relatively common one is where one drug affects the pharmacokinetics of another by inhibiting the cytochrome P450 that metabolises it. Because of the importance of these phenomena, assessment of the DDI potential for new chemical entities (NCEs) is considered important early on in the drug discovery process.
The DDI cocktail screen in human liver microsomes (HLM) is run in a fully automated fashion and the aim of the screen is to provide a single-point assessment of the DDI potential of new chemical entity (NCE; tested at 3 μM) against the 4 primary cytochrome P450 enzymes, 1A2, 2D6, 2C9 and 3A4.
The substrate cocktail approach for P450 DDI utilizes human liver microsomes together with isoform-specific clinical drug probes and permits the simultaneous measurement of the inhibition of P450 1A2, 2C9, 2D6 & 3A4 activities in a single incubation. This is run in high throughput with simultaneous detection of metabolites by LC-MS/MS. This method has been thoroughly tested and evaluated using standard compounds.
Appearance of the metabolite of each substrate is measured over time in the presence and absence of the NCE (test compound/inhibitor) at a concentration of 3 μM. The compounds are assessed for their inhibitory potential as a percentage value and interpreted using the following scheme.

The target in series [4] is T2, human MC3 receptor (Homo sapiens, UniProt P41968).
T2 construct: stably transfected with full length cDNA encoding human MC1 or MC3 receptors; expressed in transfected cells; host or cells: Chinese hamster ovary cell line (MC3; 'respectively')
As to the kind of experiment: In vitro agonist potency (EC50) against melanocortin receptor type 3, cAMP in recombinant cell line. It is filed as cell-based. The following applies: cell line stably transfected with human MC3, 1 hour at 37° C. How it is done: Measurement of In Vitro Agonist Potency (EC50) of Compounds Against Melanocortin Receptors Type 1 and 3 (MC1 and MC3).
Activation of melanocortin (MC) receptors by agonists results in activation of intracellular adenylate cyclase enzymes that synthesise the second messenger signalling molecule, adenosine 3′,5′-cyclic monophosphate (cAMP). Changes in cAMP levels following treatment of recombinant MC1 and MC3 cell lines with test compound were measured and an MC1 and MC3 potency estimate (EC50) calculated as follows: […]
Human embryonic kidney (HEK) or Chinese hamster ovary cell lines stably transfected with full length cDNA encoding human MC1 or MC3 receptors, respectively, were established using standard molecular biology methods. Test compounds were dissolved in dimethyl sulfoxide (DMSO) at 4 mM. 11 point half log unit increment dilution series of test compound, typically starting at 50 uM were prepared in a buffer comprised of phosphate buffered saline (PBS), 2.5% DMSO and 0.05% pluronic F-127 surfactant. Freshly cultured cells at 80-90% confluence were harvested and re-suspended in Dulbecco's Modified Eagle's Medium (DMEM). Cells (10,000 for MC3, 20,000 for MC1) were added to the test compound dilution series in a 384 well assay plate and incubated for 1 hour at 37° C. The relative cAMP concentration in each well was then measured using a β-galactosidase enzyme fragment complementation method purchased in kit form as the Discoverx cAMP II kit from GE Healthcare/Amersham Biosciences UK. In the case of MC1,3-Isobutyl-1-methylxanthine (IBMX) at a concentration of 750 μM was included in DMEM as the cells were re-suspended for assay. […] Sigmoidal curves were fitted to plots of log10 inhibitor concentration vs percent effect using a custom made software application called SIGHTS and EC50 estimates determined by the software as the concentration of test compound giving an effect half way between the bottom and top assymptopes of the sigmoidal dose response curve. Each experiment included an EC50 determination for alpha melanocyte stimulating hormone, which was used as a standard to track assay consistency and allow fair comparison between EC50 estimates obtained in different experiments.

Series [5] deals with MC4 receptor (Homo sapiens, UniProt P32245). As to the kind of experiment: MC4 functional agonist potency (EC50), assay protocol E of US2005/0176772 / WO 2005/077935. It is filed as cell-based. The following applies: functional potency at the MC4 receptor. How it is done: The compounds of formula (I) of the present invention have utility as MCR4 agonists in the treatment of various disease states.
MC5 and MC4 EC50 activity was determined as described by assay protocols D and E, respectively, in US2005/0176772 (pages 28-30).

Chain of MC4 receptor (P32245 whole entry): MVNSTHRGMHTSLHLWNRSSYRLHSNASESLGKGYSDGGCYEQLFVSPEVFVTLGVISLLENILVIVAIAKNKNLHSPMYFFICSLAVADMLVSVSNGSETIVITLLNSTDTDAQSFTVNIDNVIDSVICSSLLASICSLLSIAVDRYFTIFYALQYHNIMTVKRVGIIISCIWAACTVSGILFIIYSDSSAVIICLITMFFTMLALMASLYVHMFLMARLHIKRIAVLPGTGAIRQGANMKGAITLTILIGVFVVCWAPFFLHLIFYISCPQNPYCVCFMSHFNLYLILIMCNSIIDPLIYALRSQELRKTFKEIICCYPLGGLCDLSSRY
T2 sequence (P41968 whole entry): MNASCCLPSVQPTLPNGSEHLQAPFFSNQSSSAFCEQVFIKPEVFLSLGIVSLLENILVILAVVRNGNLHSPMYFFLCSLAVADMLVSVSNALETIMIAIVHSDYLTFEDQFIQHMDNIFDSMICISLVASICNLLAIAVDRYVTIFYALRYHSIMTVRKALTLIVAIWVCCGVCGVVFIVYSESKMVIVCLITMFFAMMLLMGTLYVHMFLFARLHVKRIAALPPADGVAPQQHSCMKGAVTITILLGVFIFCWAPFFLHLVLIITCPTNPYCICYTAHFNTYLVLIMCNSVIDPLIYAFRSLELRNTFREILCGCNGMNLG
T1 sequence (P08684 whole entry, canonical isoform): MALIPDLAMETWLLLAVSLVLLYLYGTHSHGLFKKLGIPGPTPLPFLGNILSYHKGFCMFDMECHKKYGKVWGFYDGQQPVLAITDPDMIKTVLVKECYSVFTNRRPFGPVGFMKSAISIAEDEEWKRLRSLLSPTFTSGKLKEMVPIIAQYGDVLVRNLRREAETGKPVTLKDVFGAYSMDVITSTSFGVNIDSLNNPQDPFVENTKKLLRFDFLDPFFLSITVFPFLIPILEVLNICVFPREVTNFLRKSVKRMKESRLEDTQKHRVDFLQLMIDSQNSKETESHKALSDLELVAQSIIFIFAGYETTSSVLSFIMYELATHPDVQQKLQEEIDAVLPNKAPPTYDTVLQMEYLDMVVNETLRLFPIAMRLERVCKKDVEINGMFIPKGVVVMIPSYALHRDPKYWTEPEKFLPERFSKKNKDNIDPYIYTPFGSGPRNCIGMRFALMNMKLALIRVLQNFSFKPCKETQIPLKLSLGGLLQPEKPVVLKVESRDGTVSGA

By inhibition is commonly meant the relative decrease from the control value, in per cent. As a reminder, the EC50 is the concentration giving half of the maximal effect. With `C[C@@H]1CN(C(=O)[C@@H]2CN(c3ccc(Cl)nn3)C[C@H]2c2ccc(Cl)cn2)C[C@H](C)[C@@]1(O)c1ccc(F)cc1` [Example 3, (3R,4R,5S)-1-{[(3S,4S)-1-(6-Chloropyridazin-3-yl)-4-(5-chloropyridin-2-yl)pyrrolidin-3-yl]carbonyl}-4-(4-fluorophenyl)-3,5-dimethylpiperidin-4-ol], the results for the microsomal CLint at 1 μM in series [1] and in series [2] were less than 7 µL/min/mg and less than 19.8 µL/min/mg, respectively. The inhibition at 3 μM in series [3] amounted to 60%. The concentration for a half-maximal effect (EC50) in series [4] amounted to 0.0164 µM; in series [5], 0.0119 µM.
